Assay: xn = mol fraction of the nth substance listed
Conditions: 101 kPa

CCCCOC(C)=O + CCCO
viscosity [mPa·s]
Conditions	298.15 K	303.15 K	308.15 K	313.15 K
x1 = 0.0995	1.689	1.479	1.311	1.19
x1 = 0.1003	–	1.296	–	–
x1 = 0.198	–	1.062	–	–
x1 = 0.1987	1.483	1.293	1.148	1.048
x1 = 0.2976	1.308	1.148	1.025	0.942
x1 = 0.3002	–	0.912	–	–
x1 = 0.4004	–	0.821	–	–
x1 = 0.4009	1.151	1.011	0.915	0.848
x1 = 0.4989	1.023	0.903	0.822	0.77
x1 = 0.5001	–	0.755	–	–
x1 = 0.5969	0.921	0.836	0.76	0.713
x1 = 0.6002	–	0.705	–	–
x1 = 0.6993	0.833	0.766	0.7	0.67
x1 = 0.7001	–	0.674	–	–
x1 = 0.7999	–	0.654	–	–
x1 = 0.8008	0.767	0.717	0.666	0.631
x1 = 0.8932	0.717	0.68	0.636	0.61
x1 = 0.9002	–	0.641	–	–

Oc1ccccc1Cl + COCCO
viscosity [mPa·s]
Conditions	x1 = 0.0797	x1 = 0.163	x1 = 0.2503	x1 = 0.3418	x1 = 0.4379	x1 = 0.5388	x1 = 0.6451	x1 = 0.757	x1 = 0.8752
303.15 K	1.925	2.342	2.78	3.204	3.56	3.811	3.884	3.735	3.376
308.15 K	1.81	2.126	2.456	2.776	3.04	3.212	3.268	3.166	2.898
313.15 K	1.479	1.762	2.055	2.335	2.586	2.765	2.842	2.785	2.593
318.15 K	1.34	1.572	1.805	2.03	2.227	2.37	2.445	2.419	2.282

CCCN + COCCOCCO
298.15 K
Conditions	viscosity [mPa·s]
x2 = 0.0255	0.399
x2 = 0.0563	0.444
x2 = 0.0879	0.493
x2 = 0.1249	0.562
x2 = 0.1605	0.634
x2 = 0.2036	0.735
x2 = 0.2453	0.842
x2 = 0.2996	1.01
x2 = 0.3405	1.159
x2 = 0.3854	1.334
x2 = 0.4144	1.455
x2 = 0.4488	1.601
x2 = 0.4769	1.726
x2 = 0.5252	1.953
x2 = 0.5736	2.163
x2 = 0.6235	2.386
x2 = 0.6581	2.523
x2 = 0.7072	2.718
x2 = 0.7563	2.892
x2 = 0.7974	3.02
x2 = 0.8476	3.165
x2 = 0.8779	3.225
x2 = 0.9088	3.297
x2 = 0.9387	3.351
x2 = 0.9526	3.375

Oc1ccccc1Cl + CN(C)c1ccccc1
Conditions	viscosity [mPa·s]
293.15 K, x1 = 0.1395	1.859
293.15 K, x1 = 0.2654	2.43
293.15 K, x1 = 0.3923	3.05
293.15 K, x1 = 0.5102	3.7
293.15 K, x1 = 0.5898	4.14
293.15 K, x1 = 0.6926	4.69
293.15 K, x1 = 0.743	4.89
293.15 K, x1 = 0.7994	5
293.15 K, x1 = 0.8299	4.98
293.15 K, x1 = 0.896	4.74
298 K, x1 = 0.1002	1.53
298 K, x1 = 0.199	1.698
298 K, x1 = 0.3025	2.194
298 K, x1 = 0.4016	2.558
298 K, x1 = 0.502	3.036
298 K, x1 = 0.6009	3.48
298 K, x1 = 0.6991	3.758
298 K, x1 = 0.8	3.852
298 K, x1 = 0.9019	3.691
303 K, x1 = 0.1002	1.384
303 K, x1 = 0.199	1.522
303 K, x1 = 0.3025	1.937
303 K, x1 = 0.4016	2.2
303 K, x1 = 0.502	2.564
303 K, x1 = 0.6009	2.904
303 K, x1 = 0.6991	3.121
303 K, x1 = 0.8	3.212
303 K, x1 = 0.9019	3.106
303.15 K, x1 = 0.1395	1.473
303.15 K, x1 = 0.2654	1.89
303.15 K, x1 = 0.3923	2.35
303.15 K, x1 = 0.5102	2.79
303.15 K, x1 = 0.5898	3.09
303.15 K, x1 = 0.6926	3.41
303.15 K, x1 = 0.743	3.505
303.15 K, x1 = 0.7994	3.545
303.15 K, x1 = 0.8299	3.545
303.15 K, x1 = 0.896	3.41
308 K, x1 = 0.1002	1.254
308 K, x1 = 0.199	1.366
308 K, x1 = 0.3025	1.702
308 K, x1 = 0.4016	1.951
308 K, x1 = 0.502	2.221
308 K, x1 = 0.6009	2.476
308 K, x1 = 0.6991	2.681
308 K, x1 = 0.8	2.757
308 K, x1 = 0.9019	2.662
313 K, x1 = 0.1002	1.171
313 K, x1 = 0.199	1.234
313 K, x1 = 0.3025	1.527
313 K, x1 = 0.4016	1.736
313 K, x1 = 0.502	1.965
313 K, x1 = 0.6009	2.152
313 K, x1 = 0.6991	2.335
313 K, x1 = 0.8	2.397
313 K, x1 = 0.9019	2.36
313.15 K, x1 = 0.1395	1.243
313.15 K, x1 = 0.2654	1.41
313.15 K, x1 = 0.3923	1.66
313.15 K, x1 = 0.5102	1.915
313.15 K, x1 = 0.5898	2.085
313.15 K, x1 = 0.6926	2.305
313.15 K, x1 = 0.743	2.4
313.15 K, x1 = 0.7994	2.47
313.15 K, x1 = 0.8299	2.475
313.15 K, x1 = 0.896	2.45
318 K, x1 = 0.1002	1.077
318 K, x1 = 0.199	1.122
318 K, x1 = 0.3025	1.382
318 K, x1 = 0.4016	1.56
318 K, x1 = 0.502	1.728
318 K, x1 = 0.6009	1.899
318 K, x1 = 0.6991	2.05
318 K, x1 = 0.8	2.173
318 K, x1 = 0.9019	2.028

Oc1ccccc1Cl + CCO
Conditions	viscosity [mPa·s]
298.15 K, x1 = 0.5	1.452

From the CheMixHub viscosity set
